Laboratory results published in patent US10857105B2, “Compounds and compositions for intracellular delivery of therapeutic agents” (ModernaTX, Inc., priority 2017, dated 2020).

Assays:
[1] = Encapsulation efficiency of RNA in nanoparticle compositions (RIBOGREEN assay); type: physicochemical; details: Table 1A; lipid:DSPC:cholesterol:PEG-DMG 50:10:38.5:1.5 mol %
How it was run: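 Lipid nanoparticles (ionisable lipid:DSPC:cholesterol:PEG-DMG 50:10:38.5:1.5 mol %) carrying N1-methylpseudouridine luciferase or hEPO mRNA diluted to about 5 μg/mL in TE, pH 7.5, with or without 2% Triton X-100, 15 min at 37° C. RiboGreen fluorescence (ex ~480, em ~520 nm) blank-subtracted; free RNA = intact/disrupted signal.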

[2] = Particle size and polydispersity index of nanoparticle compositions (Zetasizer Nano ZS); type: physicochemical
How it was run: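 Size and PDI measured by Zetasizer Nano ZS in 1×PBS (zeta potential in 15 mM PBS). Lipid nanoparticles contained test ionizable lipid:DSPC:cholesterol:PEG-DMG at 50:10:38.5:1.5 mol % with N1-methyl-pseudouridine mRNA encoding luciferase or hEPO.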

modified luciferase = test: Luciferase expression in liver, lung, spleen and femur 6 hours after intravenous administration to mice; type: in vivo; details: for Total Flux, Liver / Total Flux, Lung / Total Flux, Spleen / Total Flux, Femur: 6 hours after intravenous 0.5 mpk, mice
How it was run: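 Nanoparticle formulations of the modified luciferase were given intravenously to mice (n=3) at 0.5 mpk. Bioluminescence was measured after 6 hours as total light flux. Standard MC3 formulation and PBS run as controls.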

IL-6, IP-10 = test: Cytokine induction (IL-6, IP-10) in mice 6 hours after intravenous administration; type: in vivo; set-up: unit not given here; details: intravenous 0.5 mpk
Excerpt: The introduction of foreign material into a mammalian body induces an innate immune response that promotes cytokine production. Such immune responses to, for example, nanoparticle compositions including therapeutic and/or prophylactics, are undesirable. The induction of certain cytokines is thus measured to evaluate the […] of nanoparticle compositions. The concentrations of various cytokines in mice upon intravenous administration of nanoparticle compositions presented in Table 1A at a dosage of 0.5 mpk was measured at 6 hours. The standard MC3 formulation and a PBS control were also tested. As is evident in Table 7, IL-6 induction was highest for compositions including Compounds 1, 3, 9, 19, and 26, while IP-10 induction was highest for compositions including Compounds 3, 4, 7, 20, and 26. IL-6 induction was lowest for compositions including Compounds 4, 11, 12, and 28. IP-10 induction was lowest for compositions including Compounds 10, 11, 12, 13, 15, 17, and 18.

luciferase (Luc) mRNA = test: Luciferase expression (whole body bioluminescence) after intravenous administration to mice; type: in vivo; details: intravenous; for Novel lipid/MC3 expression ratio, i.v.: luciferase, 6 hr. time point, relative to MC3 formulation
Procedure: In order to monitor how effectively various nanoparticle compositions deliver therapeutic and/or prophylactics to targeted cells, different nanparticle compositions including a particular therapeutic and/or prophylactic (for example, a modified or naturally occurring RNA such as an mRNA) are prepared and administered to rodent populations. Mice are intravenously, intramuscularly, intraarterially, or intratumorally administered a single dose including a nanoparticle composition with a formulation such as those provided in Example 3. In some instances, mice may be made to inhale doses. Dose sizes may range from 0.001 mg/kg to 10 mg/kg, where 10 mg/kg describes a dose including 10 mg of a therapeutic and/or, prophylactic in a nanoparticle composition for each 1 kg of body mass of the mouse. A control composition including PBS may also be employed.
Upon administration of nanoparticle compositions to mice, dose delivery profiles, dose responses, and toxicity of particular formulations and doses thereof can be measured by enzyme-linked immunosorbent assays (ELISA), bioluminescent imaging, or other methods. For nanoparticle compositions including mRNA, time courses of protein expression can also be evaluated. Samples collected from the rodents for evaluation may include blood, sera, and tissue (for example, muscle tissue from the site of an intramuscular injection and internal tissue); sample collection may involve sacrifice of the animals.
The efficacy of the nanoparticle compositions presented in Table 1A was evaluated with a bioluminescence study. Formulations were administered intravenously to mice (n=6) at a dosage of 0.5 mg/kg (mpk) and bioluminescence measured at 3, 6, and 24 hour time points. The standard MC3 formulation and, in some instances, a control (e.g., a PBS control) were evaluated for comparison. […] In general, flux decreased as time progressed to less than 10% of the initial flux.
The total flux (measured by area under the curve, AUC) induced by administration of a formulation including a given lipid relative to that induced by administration of a formulation including MC3 was also measured for several lipids.

[3] = Table 1A, lipid:DSPC:cholesterol:PEG-DMG 50:10:38.5:1.5 mol %

Row | Structure (SMILES) | EE [1] [%] | Size [2, 3] [nm] | Cytokine induction, IL-6 (IL-6, IP-10) | Cytokine induction, IP-10 (IL-6, IP-10) | PDI [2, 3] | Size ([2]; Table 1E, compositions for subcutaneous administration) [nm] | Total Flux, Liver (modified luciferase) | Total Flux, Lung (modified luciferase) | Total Flux, Spleen (modified luciferase) | Novel lipid/MC3 expression ratio, i.v. (luciferase (Luc) mRNA) | Total Flux, Femur (modified luciferase) | Flux at all timepoints measured (luciferase (Luc) mRNA; mice, 0.5 mg/kg, 3, 6 and 24 hours) | Flux in the liver (modified luciferase; mice (n=3), intravenous, 0.5 mpk, 6 hours)
1 | CCCCCCCCCOC(=O)CCCCCCCN(CCO)CCCCCCC(=O)OCC(CCCCCCCC)CCCCCCCC [Compound 143, Nonyl 8-((2-hydroxyethyl)(7-((2-octyldecyl)oxy)-7-oxoheptyl)amino)octanoate] | 97.37 | 98.8 | 6.245 | 209.63 | – | – | 1.76E+09 | 3.60E+07 | 1.42E+08 | 0.44 | – | – | –
2 | CCCCCCCCCOC(=O)CCCCCCCN(CCCCCCCC(=O)OC(CCCCCCCC)CCCCCCCC)CCOC(C)=O [Compound 9, Heptadecan-9-yl 8-((2-acetoxyethyl)(8-(nonyloxy)-8-oxooctyl)amino) octanoate] | 75.7 | 68.5 | 317.45 | 366.53 | – | – | 4.30E+05 | 2.56E+04 | 5.51E+04 | – | 2.57E+04 | – | –
3 | CCCCCCCCCOC(=O)CCCCCCCN(CCO)CCCCCCCC(=O)N(CCCCCCCC)CCCCCCCC [Compound 144, Nonyl 8-((8-(dioctylamino)-8-oxooctyl)(2-hydroxyethyl)amino)octanoate] | 90.3 | 135.9 | 319.46 | 4220.55 | – | – | 3.75E+08 | 4.81E+06 | 5.11E+07 | – | 2.44E+06 | – | –
4 | CCCCCCCCCOC(=O)CCCCCCCN(CCCCCCCC(=O)OC(CCCCCCCC)CCCCCCCC)CCCOC [Compound 16, Heptadecan-9-yl 8-((3-methoxypropyl)(8-(nonyloxy)-8-oxooctyl)amino) octanoate] | 91.32 | 119.0 | 32.01 | 206.75 | – | – | 3.17E+07 | 4.18E+05 | 5.43E+06 | – | 2.55E+05 | – | –
5 | CCCCCCCCCOC(=O)CCCCCCCN(CCCCCCCC(=O)OC(CCCCCCCC)CCCCCCCC)CC(O)CC (stereo not drawn) [Compound 13, Heptadecan-9-yl 8-((2-hydroxybutyl)(8-(nonyloxy)-8-oxooctyl)amino) octanoate] | 92.28 | 79.4 | 29.07 | 126.29 | – | – | 2.25E+07 | 2.21E+05 | 7.09E+05 | – | 1.35E+05 | – | –
6 | CCCCCCCCCOC(=O)CCCCCCCN(CCCCCCCC(=O)OC(CCCCCCCC)CCCCCCCC)C1CCCCC1O (stereo not drawn) [Compound 22, Heptadecan-9-yl 8-((2-hydroxycyclohexyl)(8-(nonyloxy)-8-oxooctyl)amino)octanoate] | 96.00 | 80.2 | 90.54 | 976.50 | – | – | 4.00E+07 | 4.73E+05 | 1.57E+06 | – | 1.16E+05 | – | –

Further lines, with some results ahead:

Row | EE [1] [%] | Size [2, 3] [nm] | Cytokine induction, IL-6 (IL-6, IP-10) | Cytokine induction, IP-10 (IL-6, IP-10) | PDI [2, 3] | Size ([2]; Table 1E, compositions for subcutaneous administration) [nm] | Structure (SMILES) | Total Flux, Liver (modified luciferase) | Total Flux, Lung (modified luciferase) | Total Flux, Spleen (modified luciferase) | Novel lipid/MC3 expression ratio, i.v. (luciferase (Luc) mRNA) | Total Flux, Femur (modified luciferase) | Flux at all timepoints measured (luciferase (Luc) mRNA; mice, 0.5 mg/kg, 3, 6 and 24 hours) | Flux in the liver (modified luciferase; mice (n=3), intravenous, 0.5 mpk, 6 hours)
7 | 95.10 | 120.5 | 13.1375 | 2253.09 | – | – | CCCCCCCCC(CCCCCCCC)OC(=O)CCCCCCCN(CCO)CCCCCCCC [Compound 4, Heptadecan-9-yl 8-((2-hydroxyethyl)(octyl)amino)octanoate] | 5.26E+09 | 6.22E+07 | 4.09E+08 | – | – | – | –
8 | 89.60 | 102.9 | 88.81 | 138.16 | – | – | CCCCCCCCCOC(=O)CCCCCCCN(CCCCCCCC(=O)OC(CCCCCCCC)CCCCCCCC)CC(C)O (stereo not drawn) [Compound 10, Heptadecan-9-yl 8-((2-hydroxypropyl)(8-(nonyloxy)-8-oxooctyl)amino) octanoate] | 3.22E+08 | 8.85E+05 | 8.17E+06 | – | 5.09E+05 | – | –
9 | 85.7 | – | 130.82 | 234.35 | <1 | – | CCCCCCCCCCCCN(CCO)CCCCCCCCCCCC(=O)OC [Compound 137, Methyl 12-(dodecyl(2-hydroxyethyl)amino)dodecanoate] | 6.48E+04 | 1.66E+04 | 1.32E+05 | – | 2.02E+04 | significantly lower flux | lowest
10 | 91.84 | 85.2 | 138.43 | 156.41 | – | – | CCCCCCCCCOC(=O)CCCCCCCN(CCCCCCCC(=O)OC(CCCCCCCC)CCCCCCCC)CCOCCN(C)C [Compound 17, Heptadecan-9-yl 8-((2-(2-(dimethylamino)ethoxy)ethyl) (8-(nonyloxy)-8-oxooctyl)amino)octanoate] | 5.52E+05 | 9.95E+04 | 5.58E+06 | – | 9.55E+04 | – | –
11 | 94.1 | 91.3 | 327.15 | 1072.04 | – | – | CCCCCCCCCCCOC(=O)CCCCCN(CCO)CCCCCC(=O)OCCCCCCCCCCC [Compound 141, Diundecyl 6,6′-((2-hydroxyethyl)azanediyl)dihexanoate] | 1.59E+05 | 3.85E+04 | 6.29E+04 | – | 2.86E+04 | – | –
12 | 92.47 | 129.6 | 0.14 | 44.84 | – | – | CCCCCCCCCOC(=O)CCCCCCCN(CCCCCCCC(=O)OC(CCCCCCCC)CCCCCCCC)C[C@@H](C)O [Compound 11, Heptadecan-9-yl (R)-8-((2-hydroxypropyl)(8-(nonyloxy)-8-oxooctyl)amino)octanoate] | 8.03E+08 | 1.35E+07 | 1.04E+08 | – | – | – | –
13 | – | 101.1 | 285.56 | 1468.94 | – | 80.7 | CCCCCCCCCOC(=O)CCCCCCCN(CCCO)CCCCCCCC(=O)OC(CCCCCCCC)CCCCCCCC [Compound 19, Heptadecan-9-yl 8-((3-hydroxypropyl)(8-(nonyloxy)-8-oxooctyl)amino) octanoate] | 6.33E+08 | 5.99E+06 | 1.77E+07 | 0.96 | 1.68E+06 | – | –
